Experimental data reported in ChEMBL document CHEMBL4680321, “Novel indolylarylsulfone derivatives as covalent HIV-1 reverse transcriptase inhibitors specifically targeting the drug-resistant mutant Y181C” (Bioorg Med Chem, 2021).
pEC50, pIC50: −log10 of the molar value. Blank lines part the entries; values can stand above or below the compound they belong to. Activity calls are given as the source filed them. No cut-off for these calls is given here.

Columns and labels:
[1] = tested on: Human immunodeficiency virus 1; assay: Antiviral activity against HIV-3B infected in human MT-4 cells assessed as reduction in virus-induced cytopathic effect incubated for 5 days by MTT assay; type: functional, organism-based; details: Human immunodeficiency virus 1, 3B, MT4, 120 h
[2] = Cytotoxicity against human MT4 cells assessed as reduction in cell viability incubated for 5 days by MTT assay; type: cell-based; details: time 5 day
[3] = tested on: Human immunodeficiency virus 2; assay: Antiviral activity against HIV2 ROD infected in human MT-4 cells assessed as reduction in virus-induced cytopathic effect incubated for 5 days by MTT assay; type: functional, organism-based; details: MT4, time 5.0 day
[4] = molecular target: Human immunodeficiency virus type 1 reverse transcriptase (Human immunodeficiency virus 1, UniProt Q72547); assay: Inhibition of recombinant HIV-1 BH10 reverse transcriptase using D38/[32P]25PGA as template-primer incubated for 5 mins in presence of DTT followed by dTTP addition and measured after 15 to 30 sec by nucleotide incorporation assay; parameters: species or system Human immunodeficiency virus type 1 BH10
[5] = Stability of compound in PBS buffer at pH 2 at 2.5 mM incubated for 24 hrs by reverse phase HPLC analysis; type: physicochemical; details: pH 2, 24 h, 2500 µM
[6] = Stability of compound in PBS buffer at pH 7.4 at 2.5 mM incubated for 24 hrs by reverse phase HPLC analysis; type: physicochemical; details: pH 7.4, 24 h, 2500 µM
[7] = tested on: Human immunodeficiency virus 1; assay: Antiviral activity against HIV-3B harboring reverse transcriptase Y181C mutant infected in human MT-4 cells assessed as reduction in virus-induced cytopathic effect incubated for 5 days by MTT assay; type: functional, organism-based; details: Human immunodeficiency virus 1, 3B, MT4, 120 h
[8] = Selectivity index, ratio of EC50 for HIV-3B infected in human MT-4 cells to EC50 for HIV-3B harboring reverse transcriptase Y181C mutant infected in human MT-4 cells; type: functional, Human immunodeficiency virus 1

Compound: C=CC(=O)N1CCC[C@@H](NS(=O)(=O)c2c(C(N)=O)[nH]c3ccc(Br)cc23)C1
- pEC50 [1]: < 4.36
- CC50 at 120 h [2]: 43.6 µM
- Activity [3]: inactive

- pIC50 [4]: 6.32
Compound: NC(=O)c1[nH]c2ccc(Br)cc2c1S(=O)(=O)N1CCCC1
- pEC50 [1]: 5.44
- CC50 at 120 h [2]: 35.3 µM
- Activity [3]: inactive

Compound: O=C1Nc2ccc(Cl)cc2[C@@](C#CC2CC2)(C(F)(F)F)O1 [EFAVIRENZ]
- CC50 at 120 h [2]: > 6.3 µM
- Activity [3]: inactive

Compound: Cc1cc(/C=C/C#N)cc(C)c1Nc1ccnc(Nc2ccc(C#N)cc2)n1 [RILPIVIRINE]
- pEC50 [1]: 8.00

Compound: Cc1cc(C#N)cc(C)c1Oc1nc(Nc2ccc(C#N)cc2)nc(N)c1Br [ETRAVIRINE]
- pEC50 [1]: 8.00

Compound: C=CS(=O)(=O)N1CC[C@H](NS(=O)(=O)c2c(C(N)=O)[nH]c3ccc(Br)cc23)C1
- pEC50 [1]: 5.01
- CC50 at 120 h [2]: 16 µM
- Activity [3]: inactive
- pIC50 [4]: < 4.00
- Stabilty [5]: Stable
- Stabilty [6]: Stable
- pEC50 [7]: 4.66
- Ratio EC50 [8]: 9.3

Compound: C=CC(=O)N1CC[C@H](NS(=O)(=O)c2c(C(N)=O)[nH]c3ccc(Br)cc23)C1
- pEC50 [1]: < 3.81
- CC50 at 120 h [2]: 155 µM
- Activity [3]: inactive

Compound: C=CC(=O)N[C@@H]1CCN(S(=O)(=O)c2c(C(N)=O)[nH]c3ccc(Br)cc23)C1
- pEC50 [1]: < 3.75
- CC50 at 120 h [2]: 178 µM
- Activity [3]: inactive

Compound: C=CC(=O)N1CC[C@@H](NS(=O)(=O)c2c(C(N)=O)[nH]c3ccc(Br)cc23)C1
- pEC50 [1]: < 4.29
- CC50 at 120 h [2]: 51.8 µM
- Activity [3]: inactive

Compound: C=CS(=O)(=O)N[C@@H]1CCN(S(=O)(=O)c2c(C(N)=O)[nH]c3ccc(Br)cc23)C1
- pEC50 [1]: < 5.68
- CC50 at 120 h [2]: 2.1 µM
- Activity [3]: inactive

Compound: C=CC(=O)NC1CCN(S(=O)(=O)c2c(C(N)=O)[nH]c3ccc(Br)cc23)CC1
- pEC50 [1]: 3.90
- CC50 at 120 h [2]: > 274 µM
- Activity [3]: inactive

Compound: C=CS(=O)(=O)NC1CCN(S(=O)(=O)c2c(C(N)=O)[nH]c3ccc(Br)cc23)CC1
- pEC50 [1]: < 5.19
- CC50 at 120 h [2]: 6.5 µM
- Activity [3]: inactive

Compound: C=CS(=O)(=O)N1CCC[C@@H](NS(=O)(=O)c2c(C(N)=O)[nH]c3ccc(Br)cc23)C1
- pEC50 [1]: < 4.54
- CC50 at 120 h [2]: 29 µM
- Activity [3]: inactive
- pIC50 [4]: < 4.00
- pEC50 [7]: 4.39
- Ratio EC50 [8]: 7.7
